From US20050058696A1, “Methods and compositions for the treatment of pain and other alpha 2 adrenergic-mediated conditions” (Allergan, Inc., priority 2003, published 2005)
Like-named read-outs stand apart in the source and are kept apart here.

How the values were obtained:
[1] = test system: sulprostone-induced allodynic mice; assay: Sulprostone-induced allodynia mouse model, paint brush stimulation pain score
[2] = test system: intraocular pressure of male New Zealand rabbits; assay: Normotensive intraocular pressure in rabbits after topical instillation (pneumatonometer); assay type: in vivo, rabbit
Description: Male New Zealand rabbits are used to evaluate drug effects on normotensive IOP measurements. The rabbits are carefully handled so as to minimize excitement. They should be picked up by the nape of the neck, with their hindlegs supported by the other hand. After removing the rabbit from its cage, approximately 25 ul of dilute OphtheticR (0.05%) topical anesthesia is administered to each eye. An initial IOP determination is made in both eyes. Rabbits with 3 mmHg or greater difference in IOP between right and left eyes are replaced at this time.
Immediately following the time zero (T=0) reading in both eyes, one eye of each experimental rabbit is instilled with an ophthalmic formulation of 0.1% (w/w) brimonidine tartrate onto the cornea of the randomly selected test eye. […] The other eye is given the vehicle containing no drug. The ophthalmic formulations comprise 50 ppm Purite®(stabilized chlorine dioxide), 0.5% carboxymethylcellulose, 0.6% (w/w) borate buffer (pH 7.7) and small amounts of salts (NaCl, KCl, CaCl2, MgCl2). Intraocular pressure of both treated (ipsalateral)and untreated (contralateral) eyes is measured at the indicated time intervals for seven hours. Pressure readings utilize a Model 30 Classic™ Pneumatonometer as the measuring and recording instrument. It measures intraocular pressure (IOP) non-invasively through applanation tonometry.

[3] = test system: Chung model of allodynic rats; conditions: for analgesia (reversal of tactile allodynia): 30 minutes after administration
Description: A model for chronic pain (in particular peripheral neuropathy) involves the surgical ligation of the L5 (and optionally the L6) spinal nerves on one side in experimental animals. Rats recovering from the surgery gain weight and display a level of general activity similar to that of normal rats. However, these rats develop abnormalities of the foot, wherein the hindpaw is moderately everted and the toes are held together. More importantly, the hindpaw on the side affected by the surgery appears to become sensitive to pain from low-threshold mechanical stimuli, such as that producing a faint sensation of touch in a human, within about 1 week following surgery. This sensitivity to normally non-painful touch is called “tactile allodynia” and lasts for at least two months. The response includes lifting the affected hindpaw to escape from the stimulus, licking the paw and holding it in the air for many seconds. None of these responses is normally seen in the control group.
Rats are anesthetized before surgery. The surgical site is shaved and prepared either with betadine or novacaine. Incision is made from the thoracic vertebra X111 down toward the sacrum. Muscle tissue is separated from the spinal vertebra (left side) at the L4-S2 levels. The L6 vertebra is located and the transverse process is carefully removed with a small rongeur to expose the L4-L6 spinal nerves. The L5 and L6 spinal nerves are isolated and tightly ligated with 6-0 silk thread. The same procedure is done on the right side as a control, except no ligation of the spinal nerves is performed.
A complete hemostasis is confirmed, then the wounds are sutured. A small amount of antibiotic ointment is applied to the incised area, and the rat is transferred to the recovery plastic cage under a regulated heat-temperature lamp. […]
In the Chung rat model, tactile allodynia is measured prior to and 30 minutes after drug administration using von Frey hairs that are a series of fine hairs with incremental differences in stiffness. […]

male Sprague-Dawley rats = conditions: for sedation: graded 30 minutes after administration
Description: To test sedation, six male Sprague-Dawley rats are given various doses of a clonidine intrathecal injection. Sedation is graded 30 minutes following administration of the drug by monitoring locomotor skills as follows. Rats are placed in a dark covered chamber and a digicom analyzer (Omnitech Electronic) quantitates their exploratory behavior for a five-minute period. The machine records each time the rat interrupts an array of 32 photoelectric beams in the X and Y orientation, and quantifies the difference in behavior as compared to control animals given saline instead of clonidine.

CN(C)CCC=C1c2ccccc2CCc2ccccc21 [amitriplylene, amitriptylene]
reduction in the dosage necessary to achieve maximal analgesia ([1]; amitriptylene intrathecal with 30 ug/kg IP 5-methylurapadil versus with saline): approximately three

Brc1c(NC2=NCCN2)ccc2nccnc12 [brimonidine]
intraocular pressure ([2]; 0.1% brimonidine alone (FIG. 4B)): pronounced increase in intraocular pressure within the first 30 minutes, followed by a lowering of intraocular pressure thereafter
intraocular pressure, difference from brimonidine alone ([2]; 0.1% brimonidine and 0.001% prazosin (FIG. 4C)): Little difference
initial intraocular pressure ([2]; 0.1% brimonidine and 0.003% prazosine (FIG. 4D)): only a very small increase in initial intraocular pressure

Clc1cccc(Cl)c1N=C1NCCN1 [clonidine]
analgesia (reversal of tactile allodynia) ([3]; intrathecal dose of 0.1 μg): no analgesia
analgesia (reversal of tactile allodynia) ([3]; intrathecal dose of 1.0 μg): maximal analgesia
analgesic activity, dose-dependent ([3]; rats, intrathecal): analgesic
sedation (male Sprague-Dawley rats; intrathecal dose of 3.0 μg): mildly sedating
sedation (male Sprague-Dawley rats; intrathecal dose of 10 μg): maximal sedation
separation between analgesia and sedation (male Sprague-Dawley rats; rats, intrathecal clonidine alone): 3-10 fold
shift of the effective analgesic dose lower versus clonidine alone ([1]; 5-methyl urapidil 30 μg/kg intraperitoneal 5 minutes before clonidine): 10 fold
pain score ([1]; clonidine 0.03 microgram intrathecal, prazosin given 15 minutes before): 13.3±0.9
analgesia ([1]; clonidine 0.1 microgram intrathecal in the absence of prazosin): not analgesic
pain score ([1]; clonidine 0.1 microgram intrathecal, prazosin given 15 minutes before): 4.8±0.8
pain score ([1]; clonidine 0.4 microgram intrathecal, prazosin given 15 minutes before): 4.8±0.6
analgesia compared with intraperitoneal injection of the alpha 1 antagonist ([1]; clonidine (various doses) and 5-methylurapidil 1 microgram coadministered intrathecally): substantially similar
therapeutic window between pain and sedation ([1]; clonidine alone): 3-10 fold
therapeutic window between pain and sedation ([1]; clonidine co-administered with alpha 1 antagonist (5-methyl urapidil 30 μg/kg i.p.)): 30-100 fold
decrease in the EC50 for clonidine analgesia versus i.t. clonidine alone ([1]; coadministration of prazosin 100 ng/kg i.p.): four
analgesic activity, dose-dependent ([1]; mice, intrathecal): analgesic

COc1cc2nc(N3CCN(C(=O)c4ccco4)CC3)nc(N)c2cc1OC [prazosin]
intraocular pressure of treated eye compared to untreated eye ([2]; 35 microliters 0.003% prazosin alone (FIG. 4A)): small initial drop in intraocular pressure compared to the untreated eye, followed by a gradual increase in pressure

CS(=O)(=O)NC(=O)CCC/C=C\C[C@H]1C(=O)C[C@@H](O)[C@@H]1/C=C/[C@@H](O)COc1ccccc1 [sulprostone]
pain score ([1]; sulprostone 200 ng intrathecal alone, 16-point scale): 12-13
